Results as given in patent publication US10168342B2, “Lipid probes and uses thereof” (THE SCRIPPS RESEARCH INSTITUTE, priority 2015, dated 2019).
Read-outs that look alike come from different tables or passages of the source.

Experiments:
[1] = biological target: AEA-DA lipid probe targets in Neuro2a cells (Mus musculus, UniProt Q8VDD5)
[2] = biological target: T1, AEA-DA lipid probe targets in Neuro2a cells (Mus musculus, UniProt Q60605)
T1 sequence (Q60605 1-151): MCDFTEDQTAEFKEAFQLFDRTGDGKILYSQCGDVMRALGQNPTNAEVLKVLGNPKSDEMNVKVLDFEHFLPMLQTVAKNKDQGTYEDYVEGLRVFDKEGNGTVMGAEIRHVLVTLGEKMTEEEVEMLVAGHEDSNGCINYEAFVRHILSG

[3] = biological target: T2, AEA-DA lipid probe targets in Neuro2a cells (Mus musculus, UniProt Q91X78)
T2 sequence (Q91X78 1-348): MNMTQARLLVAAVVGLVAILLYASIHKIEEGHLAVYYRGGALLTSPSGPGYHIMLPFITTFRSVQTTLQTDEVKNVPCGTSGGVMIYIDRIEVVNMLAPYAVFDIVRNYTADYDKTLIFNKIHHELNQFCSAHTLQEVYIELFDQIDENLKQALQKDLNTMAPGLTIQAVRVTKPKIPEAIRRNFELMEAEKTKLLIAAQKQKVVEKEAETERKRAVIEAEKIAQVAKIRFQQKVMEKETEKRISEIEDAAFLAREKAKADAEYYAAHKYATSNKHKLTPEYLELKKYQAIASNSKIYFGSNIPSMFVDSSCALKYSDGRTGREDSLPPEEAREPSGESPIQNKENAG

[4] = biological target: T3, AEA-DA lipid probe targets in Neuro2a cells (Mus musculus, UniProt Q91ZN5)
T3 sequence (Q91ZN5 1-431): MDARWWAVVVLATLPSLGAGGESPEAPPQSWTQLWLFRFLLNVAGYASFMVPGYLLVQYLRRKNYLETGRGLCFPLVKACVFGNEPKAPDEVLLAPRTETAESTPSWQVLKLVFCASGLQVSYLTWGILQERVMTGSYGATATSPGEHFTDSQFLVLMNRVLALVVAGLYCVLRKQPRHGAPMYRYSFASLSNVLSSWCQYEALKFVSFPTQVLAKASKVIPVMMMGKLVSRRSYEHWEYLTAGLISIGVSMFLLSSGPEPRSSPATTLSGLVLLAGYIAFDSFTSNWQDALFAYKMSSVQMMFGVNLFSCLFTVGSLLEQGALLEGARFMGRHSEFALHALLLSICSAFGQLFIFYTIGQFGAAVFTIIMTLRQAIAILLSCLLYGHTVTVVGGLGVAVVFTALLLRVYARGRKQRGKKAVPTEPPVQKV

[5] = biological target: T4, AEA-DA lipid probe targets in Neuro2a cells (Mus musculus, UniProt Q925I1)
T4 sequence (Q925I1 1-591): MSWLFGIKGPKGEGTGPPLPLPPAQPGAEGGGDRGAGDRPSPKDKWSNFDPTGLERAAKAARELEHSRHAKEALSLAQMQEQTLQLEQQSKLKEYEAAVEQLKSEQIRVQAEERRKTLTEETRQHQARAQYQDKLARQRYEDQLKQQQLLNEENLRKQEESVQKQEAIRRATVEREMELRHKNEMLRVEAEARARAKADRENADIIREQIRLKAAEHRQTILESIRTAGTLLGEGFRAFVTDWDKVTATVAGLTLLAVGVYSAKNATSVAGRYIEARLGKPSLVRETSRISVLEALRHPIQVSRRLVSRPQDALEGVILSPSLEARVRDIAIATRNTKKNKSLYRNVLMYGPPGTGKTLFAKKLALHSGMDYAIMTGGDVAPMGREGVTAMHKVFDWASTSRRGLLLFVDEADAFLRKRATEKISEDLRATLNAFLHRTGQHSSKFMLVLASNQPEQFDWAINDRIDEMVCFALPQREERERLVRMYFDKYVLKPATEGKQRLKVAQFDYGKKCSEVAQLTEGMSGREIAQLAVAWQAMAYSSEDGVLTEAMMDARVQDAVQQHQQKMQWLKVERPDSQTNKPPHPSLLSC

[6] = biological target: T5, AEA-DA lipid probe targets in Neuro2a cells (Mus musculus, UniProt Q8VBZ3)
T5 sequence (Q8VBZ3 1-664): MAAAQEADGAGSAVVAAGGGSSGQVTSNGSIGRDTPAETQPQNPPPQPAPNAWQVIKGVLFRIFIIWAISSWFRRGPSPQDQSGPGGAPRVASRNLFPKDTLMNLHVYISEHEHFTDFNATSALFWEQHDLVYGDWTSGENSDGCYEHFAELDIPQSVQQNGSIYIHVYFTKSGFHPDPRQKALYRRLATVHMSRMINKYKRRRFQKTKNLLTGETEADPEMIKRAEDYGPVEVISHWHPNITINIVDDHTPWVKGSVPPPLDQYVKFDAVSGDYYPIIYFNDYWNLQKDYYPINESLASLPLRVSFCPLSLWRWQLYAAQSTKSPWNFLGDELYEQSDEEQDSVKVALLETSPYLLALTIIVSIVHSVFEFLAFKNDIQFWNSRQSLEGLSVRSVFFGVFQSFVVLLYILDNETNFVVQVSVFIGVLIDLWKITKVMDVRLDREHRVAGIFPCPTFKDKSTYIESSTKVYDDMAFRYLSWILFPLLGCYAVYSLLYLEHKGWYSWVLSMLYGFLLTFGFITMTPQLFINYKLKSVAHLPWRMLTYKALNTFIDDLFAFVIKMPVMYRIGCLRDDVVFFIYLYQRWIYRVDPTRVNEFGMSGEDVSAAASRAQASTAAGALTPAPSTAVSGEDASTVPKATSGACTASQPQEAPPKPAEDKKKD

[7] = biological target: T6, AEA-DA lipid probe targets in Neuro2a cells (Mus musculus, UniProt Q60930); settings: Neuro2a cells, AEA-DA probe
T6 sequence (Q60930 1-295): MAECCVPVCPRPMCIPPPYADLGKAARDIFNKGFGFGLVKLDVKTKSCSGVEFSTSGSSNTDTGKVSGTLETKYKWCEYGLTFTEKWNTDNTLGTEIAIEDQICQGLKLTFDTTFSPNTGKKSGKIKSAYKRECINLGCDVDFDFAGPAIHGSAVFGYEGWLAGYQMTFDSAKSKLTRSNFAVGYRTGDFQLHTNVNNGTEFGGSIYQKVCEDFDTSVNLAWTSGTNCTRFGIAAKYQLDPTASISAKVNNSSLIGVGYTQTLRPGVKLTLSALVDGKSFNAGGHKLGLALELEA

Chain of AEA-DA lipid probe targets in Neuro2a cells (Mus musculus, UniProt Q8VDD5) (Q8VDD5 whole entry): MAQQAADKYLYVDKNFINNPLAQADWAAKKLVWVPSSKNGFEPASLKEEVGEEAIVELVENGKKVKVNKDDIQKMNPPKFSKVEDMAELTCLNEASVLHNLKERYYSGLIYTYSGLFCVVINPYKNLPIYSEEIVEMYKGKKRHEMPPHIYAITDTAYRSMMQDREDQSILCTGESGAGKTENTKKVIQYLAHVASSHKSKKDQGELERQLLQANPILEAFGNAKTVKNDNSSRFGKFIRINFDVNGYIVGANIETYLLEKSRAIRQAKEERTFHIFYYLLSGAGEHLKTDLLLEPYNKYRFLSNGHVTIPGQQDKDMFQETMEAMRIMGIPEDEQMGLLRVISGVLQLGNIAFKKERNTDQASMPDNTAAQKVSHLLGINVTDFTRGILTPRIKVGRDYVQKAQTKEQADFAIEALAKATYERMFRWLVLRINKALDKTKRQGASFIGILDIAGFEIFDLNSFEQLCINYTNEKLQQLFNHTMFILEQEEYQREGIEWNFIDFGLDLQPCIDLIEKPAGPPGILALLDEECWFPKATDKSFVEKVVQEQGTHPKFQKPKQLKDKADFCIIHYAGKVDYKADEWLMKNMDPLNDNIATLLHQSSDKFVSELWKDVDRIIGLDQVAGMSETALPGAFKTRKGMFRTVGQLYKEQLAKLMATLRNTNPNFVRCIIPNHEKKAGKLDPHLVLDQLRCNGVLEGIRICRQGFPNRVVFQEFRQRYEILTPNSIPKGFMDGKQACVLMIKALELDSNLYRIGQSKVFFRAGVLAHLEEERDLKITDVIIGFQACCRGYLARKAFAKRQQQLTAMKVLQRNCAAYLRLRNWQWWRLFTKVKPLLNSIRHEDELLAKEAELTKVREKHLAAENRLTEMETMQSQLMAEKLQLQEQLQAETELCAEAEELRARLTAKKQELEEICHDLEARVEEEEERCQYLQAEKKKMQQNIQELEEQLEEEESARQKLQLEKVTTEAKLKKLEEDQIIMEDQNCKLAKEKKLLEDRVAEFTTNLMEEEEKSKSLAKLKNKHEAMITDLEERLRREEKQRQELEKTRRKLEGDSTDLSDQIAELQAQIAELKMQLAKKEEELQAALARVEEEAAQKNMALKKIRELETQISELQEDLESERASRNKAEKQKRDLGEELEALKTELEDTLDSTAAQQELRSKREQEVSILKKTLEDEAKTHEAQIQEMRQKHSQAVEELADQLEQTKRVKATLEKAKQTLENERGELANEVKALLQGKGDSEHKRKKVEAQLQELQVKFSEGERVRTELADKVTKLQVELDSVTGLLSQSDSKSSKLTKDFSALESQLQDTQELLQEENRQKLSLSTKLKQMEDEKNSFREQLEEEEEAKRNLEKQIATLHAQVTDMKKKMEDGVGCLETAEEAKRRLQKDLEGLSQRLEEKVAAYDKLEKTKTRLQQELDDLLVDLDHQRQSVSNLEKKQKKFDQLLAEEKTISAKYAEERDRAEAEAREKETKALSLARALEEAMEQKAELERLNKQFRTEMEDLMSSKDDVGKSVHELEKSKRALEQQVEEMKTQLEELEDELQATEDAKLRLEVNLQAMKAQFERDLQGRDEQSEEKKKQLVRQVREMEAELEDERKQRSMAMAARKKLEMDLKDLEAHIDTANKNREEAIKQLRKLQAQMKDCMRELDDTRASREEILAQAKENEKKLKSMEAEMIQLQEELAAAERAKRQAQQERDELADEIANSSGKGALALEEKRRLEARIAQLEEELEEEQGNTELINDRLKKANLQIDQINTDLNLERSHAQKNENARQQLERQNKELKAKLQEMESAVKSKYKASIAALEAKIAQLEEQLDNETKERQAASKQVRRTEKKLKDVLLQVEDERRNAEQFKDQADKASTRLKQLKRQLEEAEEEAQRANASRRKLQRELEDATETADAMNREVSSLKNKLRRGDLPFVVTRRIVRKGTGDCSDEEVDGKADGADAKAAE

Row | Compound | SILAC ratio Myh9 ([1]; competitor 25 μM) | SILAC ratio Myl6 ([2]; competitor 25 μM) | SILAC ratio Erlin1 ([3]; competitor 25 μM) | SILAC ratio, Slc35b2 ([4]; competitor 25 μM) | SILAC ratio Atad3 ([5]; competitor 25 μM) | SILAC ratio, Clptm1 ([6]; competitor 25 μM) | SILAC ratio, VDAC2 (P45880) ([7]; competitor 25 μM) | also measured
1 | O=C(/C=C/c1cccnc1)NCCCCC1CCN(C(=O)c2ccccc2)CC1 [FK-866, reference compound] | 1.2 | 1.3 | 1.0 | 1.0 | 1.2 | 1.1 | 1.0 | –
2 | CCCCC/C=C\C/C=C\C/C=C\C/C=C\CCCC(=O)NCCO [AEA, anandamide, reference compound] | – | – | – | – | – | – | – | SILAC ratio Myh9 ([1]; competitor 200 μM): 1.1; SILAC ratio Myl6 ([2]; competitor 200 μM): 1.0; SILAC ratio Erlin1 ([3]; competitor 200 μM): 1.7; SILAC ratio, Slc35b2 ([4]; competitor 200 μM): 1.9; SILAC ratio Atad3 ([5]; competitor 200 μM): 1.5; SILAC ratio, Clptm1 ([6]; competitor 200 μM): 2.3; SILAC ratio, VDAC2 (P45880) ([7]; competitor 200 μM): 1.2
3 | CN1CCN(C(=O)c2c(-c3ccccc3)c3cc([N+](=O)[O-])ccc3n2C)CC1 [KML110, (1-Methyl-5-nitro-3-phenyl-1H-indol-2-yl)(4-methylpiperazin-1-yl)methanone] | 1.7 | 1.4 | – | 1.3 | 1.2 | 1.5 | – | –
4 | C=CCN(C)CCCCCCOc1ccc(C(=O)c2ccc(Br)cc2)c(F)c1 [Ro 48-8071, reference compound] | 1.0 | 0.7 | 1.2 | 0.9 | 1.0 | 1.2 | 1.0 | –
5 | CN1CCN(C(=O)c2[nH]c3ccc([N+](=O)[O-])cc3c2-c2ccccc2)CC1 [MJN228, (4-Methylpiperazin-1-yl)(5-nitro-3-phenyl-1H-indol-2-yl)methanone] | 1.3 | 1.0 | 1.1 | 1.1 | 1.4 | 1.6 | 1.0 | SILAC ratio Myh9 ([1]; competitor 10 μM): 1.2; SILAC ratio Myh9 ([1]; competitor 50 μM): 1.2; SILAC ratio Myh9 ([1]; competitor 100 μM): 1.6; SILAC ratio Myl6 ([2]; competitor 10 μM): 1.1; SILAC ratio Myl6 ([2]; competitor 50 μM): 1.3; SILAC ratio Erlin1 ([3]; competitor 10 μM): 1.4; SILAC ratio Erlin1 ([3]; competitor 100 μM): 1.1; SILAC ratio, Slc35b2 ([4]; competitor 10 μM): 1.0; SILAC ratio, Slc35b2 ([4]; competitor 50 μM): 1.6; SILAC ratio, Slc35b2 ([4]; competitor 100 μM): 1.2; SILAC ratio Atad3 ([5]; competitor 10 μM): 1.1; SILAC ratio Atad3 ([5]; competitor 50 μM): 1.3; SILAC ratio Atad3 ([5]; competitor 100 μM): 1.4; SILAC ratio, Clptm1 ([6]; competitor 10 μM): 1.3; SILAC ratio, Clptm1 ([6]; competitor 50 μM): 1.6; SILAC ratio, Clptm1 ([6]; competitor 100 μM): 2.5
